Reference: PubChem BioAssay (NCI)
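96-well plates; 48 h exposure; 5 concentrations. Endpoints by linear interpolation between flanking doses. Not reached: highest tested concentration assigned. Abbreviation: GI50, concentration required for 50% inhibition of growth. TGI marks complete inhibition of growth.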

Assays:
Experiment in all cases: inhibition of tumour cell growth, NCI panel, 48 h
TK-10 renal = test system: TK-10 renal
MDA-MB-231 breast = test system: MDA-MB-231 breast
LOX IMVI melanoma = test system: LOX IMVI melanoma
SF-268 CNS = test system: SF-268 CNS
A549 NSCLC = test system: A549 NSCLC
HS 578T breast = test system: HS 578T breast
ACHN renal = test system: ACHN renal
UACC-257 melanoma = test system: UACC-257 melanoma
NCI-H522 lung = test system: NCI-H522 lung
HT29 colon = test system: HT29 colon
NCI-H23 lung = test system: NCI-H23 lung
SW-620 colon = test system: SW-620 colon
SN12C renal = test system: SN12C renal
T-47D breast = test system: T-47D breast
SNB-75 CNS = test system: SNB-75 CNS
KM12 colon = test system: KM12 colon
OVCAR-8 ovarian = test system: OVCAR-8 ovarian
U251 CNS = test system: U251 CNS
OVCAR-3 ovarian = test system: OVCAR-3 ovarian
M14 melanoma = test system: M14 melanoma
RPMI-8226 leukemia = test system: RPMI-8226 leukemia
OVCAR-5 ovarian = test system: OVCAR-5 ovarian
CAKI-1 renal = test system: CAKI-1 renal
NCI-H226 lung = test system: NCI-H226 lung
UO-31 renal = test system: UO-31 renal
HCT-116 colon = test system: HCT-116 colon
MOLT-4 leukemia = test system: MOLT-4 leukemia
COLO 205 colon = test system: COLO 205 colon
SK-MEL-5 melanoma = test system: SK-MEL-5 melanoma
HCT-15 colon = test system: HCT-15 colon
PC-3 prostate = test system: PC-3 prostate
A498 renal = test system: A498 renal
EKVX NSCLC = test system: EKVX NSCLC
NCI/ADR-RES ovarian = test system: NCI/ADR-RES ovarian
HL-60(TB) leukemia = test system: HL-60(TB) leukemia
SNB-19 CNS = test system: SNB-19 CNS
IGROV1 ovarian = test system: IGROV1 ovarian
MCF7 breast = test system: MCF7 breast
SK-MEL-2 melanoma = test system: SK-MEL-2 melanoma
SK-OV-3 ovarian = test system: SK-OV-3 ovarian
NCI-H460 lung = test system: NCI-H460 lung
786-0 renal = test system: 786-0 renal
HOP-62 NSCLC = test system: HOP-62 NSCLC
K-562 leukemia = test system: K-562 leukemia
HCC-2998 colon = test system: HCC-2998 colon
HOP-92 NSCLC = test system: HOP-92 NSCLC
MDA-MB-435 = test system: MDA-MB-435
CCRF-CEM leukemia = test system: CCRF-CEM leukemia
DU-145 prostate = test system: DU-145 prostate
MALME-3M melanoma = test system: MALME-3M melanoma
SF-539 CNS = test system: SF-539 CNS
UACC-62 melanoma = test system: UACC-62 melanoma
SF-295 CNS = test system: SF-295 CNS
OVCAR-4 ovarian = test system: OVCAR-4 ovarian
SK-MEL-28 melanoma = test system: SK-MEL-28 melanoma
RXF 393 renal = test system: RXF 393 renal
BT-549 breast = test system: BT-549 breast

Structure (SMILES): N#CC(C#N)=C/C=C(\Sc1ccc(F)c(Cl)c1)c1ccc(Cl)cc1
- GI50 (TK-10 renal): 1.62 µM
- TGI (TK-10 renal): 6.57 µM
- GI50 (MDA-MB-231 breast): 0.671 µM
- TGI (MDA-MB-231 breast): 2.02 µM
- GI50 (LOX IMVI melanoma): 0.302 µM
- TGI (LOX IMVI melanoma): 1.12 µM
- GI50 (SF-268 CNS): 2.52 µM
- TGI (SF-268 CNS): 17.8 µM
- GI50 (A549 NSCLC): 3.29 µM
- TGI (A549 NSCLC): 12.7 µM
- GI50 (HS 578T breast): 4.78 µM
- TGI (HS 578T breast): 43.5 µM
- GI50 (ACHN renal): 0.795 µM
- TGI (ACHN renal): 3.34 µM
- GI50 (UACC-257 melanoma): 6.68 µM
- TGI (UACC-257 melanoma): 19.5 µM
- GI50 (NCI-H522 lung): 1.8 µM
- TGI (NCI-H522 lung): 7.71 µM
- GI50 (HT29 colon): 0.545 µM
- TGI (HT29 colon): 2.24 µM
- GI50 (NCI-H23 lung): 1.14 µM
- TGI (NCI-H23 lung): 5.64 µM
- GI50 (SW-620 colon): 0.494 µM
- TGI (SW-620 colon): 5.74 µM
- GI50 (SN12C renal): 0.669 µM
- TGI (SN12C renal): 1.93 µM
- GI50 (T-47D breast): 11.6 µM
- TGI (T-47D breast): 46.3 µM
- GI50 (SNB-75 CNS): 5.62 µM
- TGI (SNB-75 CNS): 16 µM
- GI50 (KM12 colon): 2.74 µM
- TGI (KM12 colon): 13.1 µM
- GI50 (OVCAR-8 ovarian): 0.862 µM
- TGI (OVCAR-8 ovarian): 2.42 µM
- GI50 (U251 CNS): 0.72 µM
- TGI (U251 CNS): 2.61 µM
- GI50 (OVCAR-3 ovarian): 3.99 µM
- TGI (OVCAR-3 ovarian): 16.3 µM
- GI50 (M14 melanoma): 0.807 µM
- TGI (M14 melanoma): 2.53 µM
- GI50 (RPMI-8226 leukemia): 0.271 µM
- TGI (RPMI-8226 leukemia): 0.967 µM
- GI50 (OVCAR-5 ovarian): 2.93 µM
- TGI (OVCAR-5 ovarian): 24.6 µM
- GI50 (CAKI-1 renal): 1.77 µM
- TGI (CAKI-1 renal): 12.1 µM
- GI50 (NCI-H226 lung): 2.05 µM
- TGI (NCI-H226 lung): 6.25 µM
- GI50 (UO-31 renal): 0.889 µM
- TGI (UO-31 renal): 2.86 µM
- GI50 (HCT-116 colon): 0.3 µM
- TGI (HCT-116 colon): 0.799 µM
- GI50 (MOLT-4 leukemia): 0.335 µM
- TGI (MOLT-4 leukemia): 2.74 µM
- GI50 (COLO 205 colon): 2.58 µM
- TGI (COLO 205 colon): > 21.3 µM
- GI50 (SK-MEL-5 melanoma): 7.22 µM
- TGI (SK-MEL-5 melanoma): 19.4 µM
- GI50 (HCT-15 colon): 0.601 µM
- TGI (HCT-15 colon): 2.01 µM
- GI50 (PC-3 prostate): 0.787 µM
- TGI (PC-3 prostate): 7.1 µM
- GI50 (A498 renal): 16 µM
- TGI (A498 renal): 32.4 µM
- GI50 (EKVX NSCLC): 14.5 µM
- TGI (EKVX NSCLC): 39.5 µM
- GI50 (NCI/ADR-RES ovarian): 1.11 µM
- TGI (NCI/ADR-RES ovarian): 4.82 µM
- GI50 (HL-60(TB) leukemia): 0.317 µM
- TGI (HL-60(TB) leukemia): 4.48 µM
- GI50 (SNB-19 CNS): 5.48 µM
- TGI (SNB-19 CNS): 28.2 µM
- GI50 (IGROV1 ovarian): 1.09 µM
- TGI (IGROV1 ovarian): 4.29 µM
- GI50 (MCF7 breast): 1.25 µM
- TGI (MCF7 breast): 26.7 µM
- GI50 (SK-MEL-2 melanoma): 7.01 µM
- TGI (SK-MEL-2 melanoma): 23.9 µM
- GI50 (SK-OV-3 ovarian): 15.8 µM
- TGI (SK-OV-3 ovarian): > 41.1 µM
- GI50 (NCI-H460 lung): 5.24 µM
- TGI (NCI-H460 lung): 22.7 µM
- GI50 (786-0 renal): 0.95 µM
- TGI (786-0 renal): 2.49 µM
- GI50 (HOP-62 NSCLC): 1.52 µM
- TGI (HOP-62 NSCLC): 5.78 µM
- GI50 (K-562 leukemia): 0.396 µM
- TGI (K-562 leukemia): 12.6 µM
- GI50 (HCC-2998 colon): 5.71 µM
- TGI (HCC-2998 colon): 17.8 µM
- GI50 (HOP-92 NSCLC): 0.947 µM
- TGI (HOP-92 NSCLC): 6.91 µM
- GI50 (MDA-MB-435): 1.25 µM
- TGI (MDA-MB-435): 4.29 µM
- GI50 (CCRF-CEM leukemia): 0.193 µM
- TGI (CCRF-CEM leukemia): 0.539 µM
- GI50 (DU-145 prostate): 1.12 µM
- TGI (DU-145 prostate): 6.77 µM
- GI50 (MALME-3M melanoma): 3.26 µM
- TGI (MALME-3M melanoma): 20.4 µM
- GI50 (SF-539 CNS): 2.19 µM
- TGI (SF-539 CNS): 6.58 µM
- GI50 (UACC-62 melanoma): 2.43 µM
- TGI (UACC-62 melanoma): 11.5 µM
- GI50 (SF-295 CNS): 10.7 µM
- TGI (SF-295 CNS): > 53.2 µM
- GI50 (OVCAR-4 ovarian): 0.918 µM
- TGI (OVCAR-4 ovarian): 7.43 µM
- TGI (SK-MEL-28 melanoma): 3.53 µM
- GI50 (RXF 393 renal): 0.663 µM
- TGI (RXF 393 renal): 2.12 µM
- GI50 (BT-549 breast): 3.09 µM
- TGI (BT-549 breast): 8.84 µM
